Patent US9403820B2, “Kinase inhibitor polymorphs” (INTELLIKINE LLC, priority 2011, dated 2016)
Where a name gives a salt, the structure may show the parent alone.

What was measured:
Type in all cases: physicochemical
[1] = Solid form stability on vacuum drying (XRPD)
Procedure: HCl Pattern 1: Formula I free base (ca. 500 mg) was suspended in nitromethane (50 volumes, 25 mL) with stirring. HCl (1M in THF; 1.2 equivalents; 1.65 mL) was added. The suspension was subjected to heating/cooling cycles between RT and 50° C., 4 hours at each condition for one week. […] The solid was isolated by vacuum filtration and dried under vacuum at RT for 16 hours.

[2] = VH-XRPD (variable humidity XRPD) form stability
Description: Variable humidity XRPD analysis was undertaken in order to determine if two hydrated species were present. […] On increasing the humidity, the material started to re-hydrate from 13% RH, and reverted completely back to HCl Pattern 2 by 45% RH. […] Only one XRPD pattern was observed upon dehydration and it is not possible to conclude whether this is a totally anhydrous or partially hydrated form.

[3] = GVS (gravimetric vapor sorption) moisture sorption isotherm
Procedure: Sorption isotherms were obtained using a SMS DVS Intrinsic moisture sorption analyser, controlled by DVS Intrinsic Control software v1.0.0.30. The sample temperature was maintained at 25° C. by the instrument controls. The humidity was controlled by mixing streams of dry and wet nitrogen, with a total flow rate of 200 mL.min−1 The relative humidity was measured by a calibrated Rotronic probe (dynamic range of 1.0-100% RH), located near the sample. The weight change (mass relaxation) of the sample as a function of % RH was constantly monitored by the microbalance (accuracy±0.005 mg). Approximately 5-20 mg of sample was placed in a tared mesh stainless steel basket under ambient conditions. The sample was loaded and unloaded at 40% RH and 25° C. (typical room conditions). A moisture sorption isotherm was performed as outlined below (2 scans giving 1 complete cycle). The standard isotherm was performed at 25° C. at 10% RH intervals over a 0-90% RH range. Data analysis was undertaken in Microsoft Excel using DVS Analysis Suite v6.0.0.7.

[4] = Stability at 40° C./75% RH (XRPD after storage); settings: 3 weeks storage, by XRPD

Form stability on drying under vacuum at RT for 16 hours (XRPD) [1]	VH-XRPD: RH to which the form is stable ([2]; then starts to change to HCl Pattern 3)	GVS: RH to which the form appeared stable ([3]; dehydration observed below, rehydration by 40%)	GVS water content at the end of the experiment ([3]; end of GVS experiment)	GVS water content at the end of the experiment, equivalents ([3]; end of GVS experiment)	SMILES	VH-XRPD: RH below which the material starts to change ([2]; full conversion to HCl Pattern 3 at 0.5% RH)	GVS reversible uptake ([3]; between 40-90% RH, 25° C.)	Stability at 40° C./75% RH [4]
partially reverted to the free base					Nc1nc2cc(-c3ccc4ncc(C(=O)N5CCOCC5)n4c3)ccc2o1 [HCl Pattern 1]			
	≥ 14 % RH	≥ 30 % RH	10.6 wt %	3.0 eqs	Nc1nc2cc(-c3ccc4ncc(C(=O)N5CCOCC5)n4c3)ccc2o1 [HCl Pattern 2]	The material starts to change below 25% RH, with full conversion to HCl	Reversible uptake of ca. 6 wt % between 40-90% RH.	No significant changes observed by XRPD after 3 weeks storage
